In series [1] the target is wild-type HCV genotype 1b NS5B protein (Hepatitis C virus genotype 1b (isolate Con1) (HCV), UniProt Q9WMX2). The series can be described thus: HCV polymerase enzyme assay, wild-type. It counts as biochemical. Particulars: nucleoside triphosphate form, recombinant HCV genotype 1b NS5B. The source says:
Test compounds in the form of nucleoside triphosphates were examined for inhibitory activity against purified HCV polymerase in a standard assay. Bacterial expression constructs encoding the approximately 65 kDa HCV genotype 1b NS5B protein were used to generate recombinant HCV polymerases (with a deletion of the 21 carboxy terminal amino acids). Both the wild-type genotype 1b protein and protein containing the S282T mutation were expressed and purified for use in the enzymatic activity assay.
The enzymatic activity assay measured the inhibitory effect of increasing concentrations of test compound on the incorporation of α-[^33P]-labeled nucleotide into trichloroacetic acid-precipitable material. Recombinant polymerase and synthetic RNA template were combined in reaction buffer containing ribonucleoside triphosphates, α-[^33P]-labeled nucleotide and eight concentrations of test compound in three-fold dilutions. Reactions were incubated for two hours at 30° C.
Reactions were terminated by the addition of ice-cold trichloroacetic acid and sodium pyrophosphate to promote precipitation of newly-synthesized ribonucleic acid. Precipitable material from the reactions was collected by filtration onto 96-well filter plates, washed extensively with water, and quantified by liquid scintillation.
The inhibitory activity of test compounds was determined by fitting results to dose-response curves using XLfit software.

The test system of the next series is HCV genotype 1b replicon. The series can be described thus: HCV replicon assay (Zluc luciferase reporter). It counts as cell-based. Here is the method: Huh-7-derived cell line (Zluc) that harbors an HCV genotype 1b replicon and a luciferase reporter gene was grown in Dulbecco's Modified Eagle Medium (DMEM) supplemented with 10% fetal bovine serum, 2 mM GlutaMAX, 1% MEM nonessential amino acids, 100 IU/mL penicillin, 100 μg/mL streptomycin, and 0.5 mg/mL Geneticin® (G418). For dose response testing the cells were seeded in 96-well plates at 7.5×10^3 cells per well in a volume of 50 μL, and incubated at 37° C./5% CO2. Drug solutions were made up freshly in Huh-7 media as 2× stocks. Ten additional 5-fold dilutions were prepared from these stocks in DMEM without G418. At least three hours after Zluc cells were seeded, drug treatment was initiated by adding 50 μL of drug dilutions to the plates in duplicate. Final concentrations of drug ranged from 100 μM to 0.0000512 μM. Cells were then incubated at 37° C./5% CO2. Alternatively, compounds were tested at two concentrations (1 μM and 10 μM). […] After 72 hours of incubation, the inhibition of HCV replication was measured by quantification of photons emitted after mono-oxygenation of 5′-fluoroluciferin to oxyfluoroluciferin by firefly luciferase. For this, media was removed from the plates via gentle tapping. Fifty microliters of ONE-glo luciferase assay reagent was added to each well. The plates were shaken gently for 3 min at room temperature and luminescence was measured on a Victor^3 V 1420 multilabel counter (Perkin Elmer) with a 1 second read time using a 700 nm cut-off filter. The EC50 values were calculated from dose response curves from the resulting best-fit equations determined by Microsoft Excel and XLfit 4.1 software. When screening at two fixed concentrations, the results were expressed as % inhibition at 1 μM and 10 μM.

The test system of the next series is Zluc cells. The series can be described thus: Cytotoxicity evaluation, CellTiter-Blue Cell Viability Assay. Conditions: read-out: HCV Replicon CC50; Zluc cells, CellTiter-Blue cell viability.
A short description of another series: in vitro. Conditions: human.
Setting [2] is: Huh-7-derived Zluc cells, genotype 1b replicon, luciferase, 72 hours; read-out: HCV Replicon EC50.
Where [3] appears, read: Hepatitis C virus; Huh-7-derived Zluc cells, genotype 1b replicon, luciferase, 72 hours; read-out: HCV Replicon EC50.

Read-outs that look alike come from different tables or passages of the source. A value given as a limit tells only on which side of the number the result lay.

For `Nc1ncnc2c1ncn2[C@@H]1O[C@H](COP(=O)(O)OP(=O)(O)OP(=O)(O)O)[C@@H](CO)[C@H]1O` [Compound 307], the IC50 (commonly the concentration that gives 50% inhibition) in series [1] fell in the range of 0.25 to 1 µM.
Turning to `C[C@@H](NP(=O)(OC[C@H]1O[C@@H](n2ccc(=O)[nH]c2=O)[C@H](O)[C@@H]1CO)Oc1ccccc1)C(=O)OCc1ccccc1` (single isomer, unassigned) [Compound 123a Diastereomer 2], the EC50 (usually the concentration needed to bring the measured effect to its halfway point) in the series on HCV genotype 1b replicon (setting [2]) is over 10 µM. In addition, the CC50 with Zluc cells was over 50 µM.
`C[C@@H](NP1(=O)OC[C@H]2[C@@H](O)[C@H](n3ccc(=O)[nH]c3=O)O[C@@H]2CO1)C(=O)OCc1ccccc1` (single isomer, unassigned) [Compound 120a (Diastereomer 2)]: in the series with HCV genotype 1b replicon (setting [2]), the EC50 is over 10 µM. Besides, the CC50 with Zluc cells is over 50 µM.
Turning to `Nc1nc2c(ncn2[C@@H]2O[C@H](CO)[C@@H](CO)[C@H]2O)c(=O)[nH]1` [Compound 208], at HCV genotype 1b replicon (setting [2]), the EC50 is over 10 µM. Besides, the CC50 in the series with Zluc cells is over 50 µM.
Regarding `CC(C)OC(=O)[C@@H](C)NP1(=O)OC[C@H]2[C@@H](O)[C@H](n3ccc(=O)[nH]c3=O)O[C@@H]2CO1` (single isomer, unassigned) [Compound 110a (Diastereomer 2)], the half-maximal effective concentration (EC50) in the series with HCV genotype 1b replicon (setting [2]) was over 10 µM. Moreover, the CC50 with Zluc cells was over 50 µM.
For `CC(C)(CO)C(=O)SCCO[PH](=O)OC[C@H]1O[C@@H](n2ccc(=O)[nH]c2=O)[C@H](O)[C@@H]1CO` (mixture of isomers) [Compound 107 (Mixture of diastereomers)], in the series with HCV genotype 1b replicon (setting [3]), the EC50 is over 10 µM. Moreover, the CC50 in the series “in vitro” is over 50 µM.
For `CCOC(=O)OC(C)OP(=O)(N[C@H](C(=O)OC)C(C)C)OC[C@H]1O[C@@H](n2cnc3c(OCC)nc(N)nc32)[C@H](O)[C@@H]1CF` (mixture of isomers) [Compound 128a Mixture of diastereomers], in that order: over 10 µM and over 50 µM.
In the case of `CC(C)OP1(=O)OC[C@H]2[C@@H](O)[C@H](n3ccc(=O)[nH]c3=O)O[C@@H]2CO1` (single isomer, unassigned) [Compound 108 (Diastereomer 2)], the EC50 with HCV genotype 1b replicon (setting [2]) was over 10 µM. Also, in the series with Zluc cells, the CC50 is over 50 µM.
As for `C[C@@H](NP(=O)(OC[C@H]1O[C@@H](n2cnc3c(=O)[nH]c(N)nc32)[C@H](O)[C@@H]1CF)Oc1ccccc1)C(=O)OC1CCCC1` (single isomer, unassigned) [Compound 124a Diastereomer 2], the EC50 in the series on HCV genotype 1b replicon (setting [2]) was over 10 µM. Also, the CC50 in the series on Zluc cells is over 50 µM.
Turning to `Nc1ncnc2c1ncn2[C@@H]1O[C@H](CO)[C@@H](CF)[C@H]1O` [Compound 225], in the series with HCV genotype 1b replicon (setting [3]), the EC50 is over 10 µM. For the same compound, the CC50 in “in vitro” is over 50 µM.
Regarding `CC(C)OC(=O)[C@@H](C)NP(=S)(OC[C@H]1O[C@@H](n2ccc(=O)[nH]c2=O)[C@H](O)[C@@H]1CO)Oc1ccccc1` (single isomer, unassigned) [Compound 122a Diastereomer 2], in the series with HCV genotype 1b replicon (read-out: HCV Replicon EC50; Huh-7-derived Zluc cells, genotype 1b replicon, luciferase, 72 hours), the EC50 was over 10 µM. Also, in the series on Zluc cells, the CC50 is over 50 µM.
For `C[C@@H](NP(=O)(OC[C@H]1O[C@@H](n2ccc(=O)[nH]c2=O)[C@H](O)[C@@H]1CO)Oc1ccccc1)C(=O)OCc1ccccc1` (single isomer, unassigned) [Compound 123a Diastereomer 1], in the series with HCV genotype 1b replicon (setting [3]), the EC50 was over 10 µM. In the series “in vitro”, this compound registered a CC50 of over 50 µM.
Consider `C[C@@H](NP1(=O)OC[C@H]2[C@@H](O)[C@H](n3ccc(=O)[nH]c3=O)O[C@@H]2CO1)C(=O)OCc1ccccc1` (single isomer, unassigned) [Compound 120a (Diastereomer 1)], for which, in the series on HCV genotype 1b replicon (setting [3]), the EC50 is over 10 µM. Further, the CC50 in “in vitro” is over 50 µM.
As for `CC(C)(C)C(=O)SCCOP(=O)(OCCSC(=O)C(C)(C)C)OC[C@H]1O[C@@H](n2cnc3c(=O)[nH]c(N)nc32)[C@H](O)[C@@H]1CO` [Compound 101], the EC50 with HCV genotype 1b replicon (setting [3]) was over 10 µM. Besides, in the series “in vitro”, the CC50 is over 50 µM.
On to `Nc1ccn([C@@H]2O[C@H](CO)[C@@H](C(F)F)[C@H]2O)c(=O)n1` [Compound 203], for which the EC50 in the series with HCV genotype 1b replicon (setting [3]) is over 10 µM. This compound showed a CC50 in the series “in vitro” of over 50 µM.
In the case of `O=c1ccn([C@@H]2O[C@H](CO)[C@@H](CF)[C@H]2O)c(=O)[nH]1` [Compound 202], in the series with HCV genotype 1b replicon (setting [3]), the EC50 is over 10 µM. Besides, the CC50 in “in vitro” was over 50 µM.
For `O=c1ccn([C@@H]2O[C@H](CO)[C@@H](C(F)F)[C@H]2O)c(=O)[nH]1` [Compound 201] the same measures were over 10 µM and over 50 µM.
For `Nc1ccn([C@@H]2O[C@H](CO)[C@@H](CF)[C@H]2O)c(=O)n1` [Compound 204] the same measures were over 10 µM and over 50 µM.
Take `CC(C)OC(=O)[C@H](C)NP(=O)(OCCSC(=O)C(C)(C)C)OC[C@H]1O[C@@H](n2ccc(N)nc2=O)[C@H](O)[C@@H]1CO` (single isomer, unassigned) [Compound 106b (Mixture of diastereomers)]: the EC50 at HCV genotype 1b replicon (setting [2]) is over 10 µM. The CC50 with Zluc cells is over 50 µM.
Consider `Nc1nc2c(ncn2[C@@H]2O[C@H](CO)[C@@H](CF)[C@H]2O)c(=O)[nH]1` [Compound 226], for which the EC50 in the series with HCV genotype 1b replicon (setting [3]) is over 10 µM. Further, the CC50 in the series “in vitro” is over 50 µM.
For `CC(=O)OC[C@H]1[C@@H](OC(C)=O)[C@H](n2ccc(=O)[nH]c2=O)O[C@@H]1CO` [Compound 212] the same measures were over 10 µM and over 50 µM.
On to `Nc1ncnc2c1ncn2[C@@H]1O[C@H](COP(=O)(O)OP(=O)(O)OP(=O)(O)O)[C@@H](CF)[C@H]1O` [Compound 326], for which the IC50 in series [1] was in the range of 1 to 10 µM.
With `CC(=O)OC[C@H]1[C@@H](OC(C)=O)[C@H](n2ccc(N)nc2=O)O[C@@H]1CO` [Compound 213], the EC50 in the series with HCV genotype 1b replicon (setting [3]) is over 10 µM. In the series “in vitro”, the CC50 is over 50 µM.
For `CC(C)OC(=O)CCCOP1(=O)OC[C@H]2[C@@H](O)[C@H](n3ccc(=O)[nH]c3=O)O[C@@H]2CO1` (single isomer, unassigned) [Compound 112 (Diastereomer 1)], in that order: over 10 µM and over 50 µM.
For the compound `O=c1ccn([C@@H]2O[C@@H]3COP(=O)(OCc4ccccc4)OC[C@H]3[C@H]2O)c(=O)[nH]1` (mixture of isomers) [Compound 113 (Mixture of diastereomers)], in the series with HCV genotype 1b replicon (setting [3]), the EC50 is over 10 µM. The compound also gave a CC50 in the series “in vitro” of over 50 µM.
Consider `Nc1nc(SCCO)c2ncn([C@@H]3O[C@H](CO)[C@@H](CO)[C@H]3O)c2n1` [Compound 209], for which, on HCV genotype 1b replicon (setting [2]), the EC50 is over 10 µM. Moreover, the CC50 in the series with Zluc cells is over 50 µM.
For the compound `CC(C)OC(=O)C(C)NP(=O)(NC(C)C(=O)OC(C)C)OC[C@H]1O[C@@H](n2ccc(=O)[nH]c2=O)[C@H](O)[C@@H]1CO` (stereo partly drawn) [Compound 116], the EC50 on HCV genotype 1b replicon (setting [2]) is over 10 µM. In the series on Zluc cells, the CC50 was over 50 µM.
On to `C[C@@H](NP(=O)(OC[C@H]1O[C@@H](n2cnc3c(=O)[nH]c(N)nc32)[C@H](O)[C@@H]1CF)Oc1ccccc1)C(=O)OC1CCCC1` (single isomer, unassigned) [Compound 124a Diastereomer 1], for which the EC50 with HCV genotype 1b replicon (setting [3]) was over 10 µM. The same compound came in with a CC50 in “in vitro” of over 50 µM.

Source of the values: US10202411B2, “3′-substituted methyl or alkynyl nucleosides nucleotides for the treatment of HCV” (priority 2014, dated 2019).
